Data taken from PMC4775085 (ACS chemical neuroscience, 2015).

Key:
mutant HSPB1 DRG neurons = assay: Mitochondrial axonal transport in mutant HSPB1 DRG neurons; assay type: cell-based, mouse; settings: DRG neurons from transgenic mutant HSPB1 mice, 100 nM overnight
HDAC3 = HDAC3 (Homo sapiens, UniProt O15379); assay: HDAC3 enzymatic inhibition assay
HDAC7 = molecular target: T1, HDAC7 (Homo sapiens, UniProt Q8WUI4); assay: HDAC7 enzymatic inhibition assay
T1 sequence (Q8WUI4 1-952): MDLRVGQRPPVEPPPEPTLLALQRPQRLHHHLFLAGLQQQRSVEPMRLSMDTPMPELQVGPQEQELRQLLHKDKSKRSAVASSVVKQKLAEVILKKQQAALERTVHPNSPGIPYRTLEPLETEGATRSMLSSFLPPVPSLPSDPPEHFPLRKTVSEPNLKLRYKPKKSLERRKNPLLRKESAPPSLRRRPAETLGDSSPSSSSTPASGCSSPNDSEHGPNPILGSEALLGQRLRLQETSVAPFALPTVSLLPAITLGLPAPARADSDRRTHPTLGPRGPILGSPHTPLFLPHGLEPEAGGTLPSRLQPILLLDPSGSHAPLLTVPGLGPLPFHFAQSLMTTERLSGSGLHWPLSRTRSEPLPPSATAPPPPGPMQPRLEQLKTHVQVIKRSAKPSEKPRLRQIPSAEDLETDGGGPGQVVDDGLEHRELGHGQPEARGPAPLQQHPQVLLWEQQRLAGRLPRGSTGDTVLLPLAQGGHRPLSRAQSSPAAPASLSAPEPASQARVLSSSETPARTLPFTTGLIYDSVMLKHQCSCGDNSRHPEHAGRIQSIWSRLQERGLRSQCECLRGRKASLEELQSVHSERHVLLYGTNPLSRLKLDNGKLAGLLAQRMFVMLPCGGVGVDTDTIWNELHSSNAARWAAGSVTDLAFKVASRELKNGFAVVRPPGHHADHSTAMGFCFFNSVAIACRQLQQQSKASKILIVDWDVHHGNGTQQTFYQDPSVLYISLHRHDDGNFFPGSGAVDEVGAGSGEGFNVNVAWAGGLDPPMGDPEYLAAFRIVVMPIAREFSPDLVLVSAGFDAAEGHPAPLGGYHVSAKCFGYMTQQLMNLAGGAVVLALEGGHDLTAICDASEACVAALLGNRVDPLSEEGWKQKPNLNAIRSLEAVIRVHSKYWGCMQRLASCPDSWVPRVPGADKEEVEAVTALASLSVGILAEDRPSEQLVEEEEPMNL

HDAC1 = HDAC1 (Homo sapiens, UniProt Q13547); assay: HDAC1 enzymatic inhibition assay; assay type: biochemical; settings: HDAC1 IC50, singlet 10-dose IC50 mode, 3-fold serial dilution starting at 100 μM
HDAC2 = HDAC2 (Homo sapiens, UniProt Q92769); assay: HDAC2 enzymatic inhibition assay
HDAC8 = molecular target: T2, HDAC8 (Homo sapiens, UniProt Q9BY41); assay: HDAC8 enzymatic inhibition assay
T2 sequence (Q9BY41 1-377): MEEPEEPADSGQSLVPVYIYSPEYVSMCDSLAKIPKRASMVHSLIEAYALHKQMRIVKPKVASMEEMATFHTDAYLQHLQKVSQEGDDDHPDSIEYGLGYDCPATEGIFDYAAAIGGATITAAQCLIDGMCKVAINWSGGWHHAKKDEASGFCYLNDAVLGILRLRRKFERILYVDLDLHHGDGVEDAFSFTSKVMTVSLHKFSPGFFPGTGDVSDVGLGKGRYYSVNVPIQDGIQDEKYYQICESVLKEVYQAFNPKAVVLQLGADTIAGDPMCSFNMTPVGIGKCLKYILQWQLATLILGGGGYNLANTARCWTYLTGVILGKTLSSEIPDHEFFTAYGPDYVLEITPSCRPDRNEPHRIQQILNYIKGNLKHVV

Chain of HDAC2 (Q92769 whole entry): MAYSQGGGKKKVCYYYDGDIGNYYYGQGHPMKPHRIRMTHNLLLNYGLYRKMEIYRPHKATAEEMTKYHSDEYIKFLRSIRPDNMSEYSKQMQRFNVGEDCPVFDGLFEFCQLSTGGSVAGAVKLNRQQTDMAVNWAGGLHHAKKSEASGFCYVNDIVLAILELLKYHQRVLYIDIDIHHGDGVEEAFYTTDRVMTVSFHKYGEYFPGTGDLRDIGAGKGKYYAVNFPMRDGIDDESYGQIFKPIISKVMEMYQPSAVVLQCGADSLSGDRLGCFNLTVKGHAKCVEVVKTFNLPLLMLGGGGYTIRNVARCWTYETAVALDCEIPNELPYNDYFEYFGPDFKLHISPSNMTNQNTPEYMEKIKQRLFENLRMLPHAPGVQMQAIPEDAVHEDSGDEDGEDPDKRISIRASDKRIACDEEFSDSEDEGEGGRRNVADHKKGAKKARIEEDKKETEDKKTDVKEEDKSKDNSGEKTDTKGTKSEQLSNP
Chain of HDAC1 (Q13547 whole entry): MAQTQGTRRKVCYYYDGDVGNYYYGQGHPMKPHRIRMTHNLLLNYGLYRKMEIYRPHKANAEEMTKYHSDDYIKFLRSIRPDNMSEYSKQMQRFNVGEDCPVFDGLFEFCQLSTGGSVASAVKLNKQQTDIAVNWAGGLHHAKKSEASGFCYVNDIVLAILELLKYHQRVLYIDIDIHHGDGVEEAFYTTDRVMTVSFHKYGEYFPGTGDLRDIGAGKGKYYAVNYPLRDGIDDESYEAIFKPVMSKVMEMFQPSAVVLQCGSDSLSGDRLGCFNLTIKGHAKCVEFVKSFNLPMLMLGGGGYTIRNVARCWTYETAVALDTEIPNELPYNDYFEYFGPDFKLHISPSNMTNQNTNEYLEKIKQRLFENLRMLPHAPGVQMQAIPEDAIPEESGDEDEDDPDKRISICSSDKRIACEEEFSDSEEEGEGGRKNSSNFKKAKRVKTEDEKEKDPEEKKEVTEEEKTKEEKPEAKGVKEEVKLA
Chain of HDAC3 (O15379 whole entry): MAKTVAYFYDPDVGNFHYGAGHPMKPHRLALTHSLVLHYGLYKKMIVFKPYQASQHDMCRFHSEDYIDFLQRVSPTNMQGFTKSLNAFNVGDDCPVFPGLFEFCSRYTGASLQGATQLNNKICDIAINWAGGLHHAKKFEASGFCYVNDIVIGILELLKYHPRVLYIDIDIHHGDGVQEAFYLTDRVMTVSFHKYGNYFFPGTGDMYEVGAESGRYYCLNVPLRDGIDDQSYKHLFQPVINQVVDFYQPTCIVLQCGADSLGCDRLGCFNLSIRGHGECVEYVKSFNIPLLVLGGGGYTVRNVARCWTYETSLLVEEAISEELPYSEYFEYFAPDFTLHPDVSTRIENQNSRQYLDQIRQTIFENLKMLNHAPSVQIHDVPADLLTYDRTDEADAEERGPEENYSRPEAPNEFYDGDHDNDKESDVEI
Chain of HDAC3 (Q9Y618 395-489 partner limits assumed): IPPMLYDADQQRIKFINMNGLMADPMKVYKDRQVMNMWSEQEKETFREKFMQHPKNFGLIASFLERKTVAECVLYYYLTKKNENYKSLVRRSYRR

Cc1nc2ccc(F)cc2n1Cc1ccc(C(=O)NO)cc1 [30a, 4-[(6-Fluoro-2-methyl-1-benzimidazolyl)methyl]-N-hydroxybenzamide] was tested, and the “mitochondrial axonal transport (number of moving mitochondria per 100 μm of neurite)” value (mutant HSPB1 DRG neurons) was “able to restore the movement of mitochondria”, the IC50 (HDAC3) was 10 µM and the IC50 (HDAC7) was 0.211 µM. The IC50 (HDAC1) was 4.36 µM, the IC50 (HDAC2) was 7.43 µM and the IC50 (HDAC8) was 0.368 µM.
